In brackets after ≈: the same amount, converted by molar mass. Structures can show the parent of a compound that is named as a salt. Where two headings read alike, the source gives them in different places.
Key:
[1] = system: human blood platelets in platelet-rich-plasma (ADP-induced aggregation); assay: In vitro inhibition of ADP-induced human platelet aggregation (aggregometer method of Born); format: cell-based
Protocol: The aggregometer method of Born, G. V. R., J. Physiol., (London), 162, 67-68, (1962) as modified by Mustard, J. F., et al., J. Lab. Clin. Med., 64, 548-599, (1964) was used to assess the in vitro activity of the various compounds as to the inhibition of adenosine diphosphate (ADP) and collagen-induced platelet aggregation. The human volunteer donor's arm is cleansed with 70% ethyl alcohol. A sterile 20 ml syringe and needle are used to withdraw 20 ml of blood. The blood is immediately added to a test tube containing 3.8% sodium citrate to prevent clotting (1 part citrate to 9 parts blood).
Platelet rich plasma (PRP) was separated by centrifugation for 10 minutes at 1000 rpm (140 g) from citrated (3.8%) human blood. All glassware used for preparation of PRP is silicon treated. ADP in final concentration of 0.5 mcg/mL or 0.05 mL of a collagen suspension prepared according to the method described by Evans, G., et al., J. Exp. Med., 128, 877-894, (1968) was used to induce aggregation. The various compounds tested were dissolved in dimethylsulfoxide (DMSO) so that 5 mcl added to the platelet rich plasma would yield the desired test concentration. Vehicle control trials were done and compared with aggregation induced in platelet rich plasma containing various concentrations of the test compounds. Dose response curves were obtained and Inhibitor Concentration (IC50) values calculated.
The target compounds were evaluated as inhibitors of ADP-induced aggregation of human blood platelets in platelet-rich-plasma (PRP) in vitro.

Aqueous solubility = format: physicochemical; details: water
[2] = 0.05 h, ADP 0.5 mcg/mL, human PRP, standard protocol: about 3 minutes incubation prior to agonist, read-out: IC50 vs ADP in human PRP

## CCOC(=O)NCCCOc1ccc2nc3[nH]c(=O)[nH]c3cc2c1 [Cmpd 7a]
[1]; [2]
  IC50: 0.035 µg/mL (≈ 0.106 µM)
Aqueous solubility
  solubility: < 10000 µg/mL

## CN(C(=O)NCCCOc1ccc2nc3[nH]c(=O)[nH]c3cc2c1)C1CCCCC1 [Cmpd 7b, N-Cyclohexyl-N'-[3-[(2,3-dihydro-2-oxo-1H-imidazo[4,5-b]quinolin-7-yl)oxy]propyl]-N-methylurea]
[1]; [2]
  IC50: 0.04 µg/mL (≈ 0.101 µM)
Aqueous solubility
  solubility: < 10000 µg/mL

## Cl.O=C(NCCCOc1ccc2nc3[nH]c(=O)[nH]c3cc2c1)NC1CCCCC1 [Cmpd 7c, N-Cyclohexyl-N'-[3-[(2,3-dihydro-2-oxo-1H-imidazo[4,5-b]quinolin-7-yl)oxy]propyl]urea hydrochloride]
[1]; [2]
  IC50: 0.3 µg/mL
Aqueous solubility
  solubility: < 10000 µg/mL

## O=C(NCCCOc1ccc2nc3[nH]c(=O)[nH]c3cc2c1)N1CCOCC1 [Cmpd 7d]
[1]; [2]
  IC50: 1.2 µg/mL (≈ 3.23 µM)
Aqueous solubility
  solubility: < 10000 µg/mL

## Cl.O=C(NCCCOc1ccc2nc3[nH]c(=O)[nH]c3cc2c1)N1CCC(Cc2ccccc2)CC1 [Cmpd 7e, N-[3-(2,3-dihydro-2-oxo-1H-imidazo[4,5-b]quinolin-7yloxy)propyl]-4-(phenylmethyl)-1-piperidinecarboxamide hydrochloride]
[1]; [2]
  IC50: 0.08 µg/mL
Aqueous solubility
  solubility: < 200 µg/mL

## Cl.Cl.O=C(NCCCOc1ccc2nc3[nH]c(=O)[nH]c3cc2c1)N1CCN(CC2CCCCC2)CC1 [Cmpd 7f, 4-(Cyclohexylmethyl)-N-[3-(2,3-dihydro-2-oxo-1H-imidazo[4,5-b]quinolin-7yloxy)propyl]-1-piperazinecarboxamide dihydrochloride]
[1]; [2]
  IC50: 0.04 µg/mL
Aqueous solubility
  solubility: > 20000 µg/mL

## O=C(NCCCOc1ccc2nc3[nH]c(=O)[nH]c3cc2c1)N1CCN(CC2CCCCCC2)CC1 [Cmpd 7g, 4-(Cycloheptylmethyl)-N-[3-(2.3-dihydro-2-oxo-1H-imidazo[4,5-b]quinolin-7yloxy)propyl]-1piperazinecarboxamide dihydrochloride]
[1]; [2]
  IC50: 0.03 µg/mL
Aqueous solubility
  solubility: 2000 µg/mL

## Cl.Cl.O=C(NCCCOc1ccc2nc3[nH]c(=O)[nH]c3cc2c1)N1CCN(CC2CCCC2)CC1 [Cmpd 7h, 4-(Cyclopentylmethyl)-N-[3-(2,3-dihydro-2-oxo-1H-imidazo[4,5-b]quinolin-7yloxy)propyl]-1-piperazinecarboxamide dihydrochloride]
[1]; [2]
  IC50: 0.05 µg/mL
Aqueous solubility
  solubility: 700 µg/mL

## Cl.Cl.O=C(NCCCOc1ccc2nc3[nH]c(=O)[nH]c3cc2c1)N1CCN(CCC2CCCCC2)CC1 [Cmpd 7i, 4-(Cyclohexylethyl)-N-[3-(2,3-dihydro-2-oxo-1H-imidazo [4,5-b]quinolin-7yloxy)propyl]-1-piperazinecarboxamide dihydrochloride]
[1]; [2]
  IC50: 0.04 µg/mL
Aqueous solubility
  solubility: 500 µg/mL

## O=C(NCCCOc1ccc2nc3[nH]c(=O)[nH]c3cc2c1)N1CCN(CC2CCCCO2)CC1 (stereo not drawn) [Cmpd 7j, N-[3-(2,3-dihydro-2-oxo-1H-imidazo[4,5-b]quinolin-7yloxy)propyl-4-(tetrahydro-2H-pyran-2-yl)methyl]-1-piperazinecarboxamide dihydrochloride ethanol solvate]
[1]; [2]
  IC50: 0.09 µg/mL
Aqueous solubility
  solubility: > 20000 µg/mL

## CC(C)CN1CCN(C(=O)NCCCOc2ccc3nc4[nH]c(=O)[nH]c4cc3c2)CC1.Cl.Cl [Cmpd 7k, N-[3-(2,3-dihydro-2-oxo-1H-imidazo[4,5-b]quinolin-7yloxy)propyl]-4-(2-methylpropyl]-1-piperazinecarboxamide dihydrochloride]
[1]; [2]
  IC50: 0.09 µg/mL
Aqueous solubility
  solubility: > 20000 µg/mL

## CCC(CC)CN1CCN(C(=O)NCCCOc2ccc3nc4[nH]c(=O)[nH]c4cc3c2)CC1.Cl.Cl [Cmpd 7l, N-[3-(2,3-dihydro-2-oxo-1H-imidazo[4,5-b]quinolin-7yloxy)propyl]-4-(2-ethylbutyl)-1-piperazinecarboxamide dihydrochloride]
[1]; [2]
  IC50: 0.022 µg/mL
Aqueous solubility
  solubility: > 20000 µg/mL

## CCCC(CCC)CN1CCN(C(=O)NCCCOc2ccc3nc4[nH]c(=O)[nH]c4cc3c2)CC1.Cl.Cl [Cmpd 7m, N-[3-(2,3-dihydro-2-oxo-1H-imidazo[4,5-b]quinolin-7yloxy)propyl]-4-(2-propylpentyl]-1-piperazinecarboxamide dihydrochloride]
[1]; [2]
  IC50: 0.07 µg/mL
Aqueous solubility
  solubility: 500 µg/mL

## O=C(NCCCOc1ccc2nc3[nH]c(=O)[nH]c3cc2c1)N1CCNCC1 [Cmpd 7n, N-[3-(2.3-dihydro-2-oxo-1H-imidazo4.5-b]quinolin-7yloxy)propyl]-1-piperazinecarboxamide dihydrochloride ethanol solvate]
[1]; [2]
  IC50: 3.8 µg/mL
Aqueous solubility
  solubility: < 500 µg/mL

## O=C(NCCCOc1ccc2nc3[nH]c(=O)[nH]c3cc2c1)N1CCN(Cc2ccccc2)CC1 [Cmpd 7o, N-[3-(2,3-dihydro-2-oxo-1H-imidazo[4,5-b]quinolin-7yloxy)propyl]-4-(phenylmethyl)-1-piperazinecarboxamide dihydrochloride ethanol solvate]
[1]; [2]
  IC50: 0.18 µg/mL
Aqueous solubility
  solubility: > 20000 µg/mL

## O=C(NCCCOc1ccc2nc3[nH]c(=O)[nH]c3cc2c1)N1CCN(Cc2ccc(Cl)cc2)CC1 [Cmpd 7p, N-[3-(2,3-dihydro-2-oxo-1H-imidazo[4,5-b]quinolin-7yloxy)propyl]-4-(4-chlorophenyl)methyl)-1-piperazine carboxamide dihydrochloride]
[1]; [2]
  IC50: 0.17 µg/mL
Aqueous solubility
  solubility: 200 µg/mL

## O=C(NCCCOc1ccc2nc3[nH]c(=O)[nH]c3cc2c1)N1CCN(Cc2ccc(F)cc2)CC1 [Cmpd 7q, N-[3-(2,3-dihydro-2-oxo-1H-imidazo[4,5-b]quinolin-7yloxy)propyl]-4-[(4-fluorophenyl)methyl)-1-piperazine carboxamide dihydrochloride ethanol solvate]
[1]; [2]
  IC50: 0.205 µg/mL
Aqueous solubility
  solubility: > 20000 µg/mL

## O=C(NCCCOc1ccc2nc3[nH]c(=O)[nH]c3cc2c1)N1CCN(CCc2ccccc2)CC1 [Cmpd 7r, N-[3-(2,3-dihydro-2-oxo-1H-imidazo[4,5-b]quinolin-7yloxy)propyl]-4-[(2-phenylethyl)-1-piperazinecarboxamidedihydrochloride]
[1]; [2]
  IC50: 0.17 µg/mL
Aqueous solubility
  solubility: 250 µg/mL

## O=C(NCCCOc1ccc2nc3[nH]c(=O)[nH]c3cc2c1)N1CCN(Cc2cccs2)CC1 [Cmpd 7s, N-[3-(2,3-dihydro-2-oxo-1H-imidazo[4,5-b]quinolin-7yloxy)propyl]-4-[(2-thienyl)methyl)-1-piperazinecarboxamide dihydrochloride ethanol solvate]
[1]; [2]
  IC50: 0.09 µg/mL
Aqueous solubility
  solubility: > 10000 µg/mL

## O=C(NCCCOc1ccc2nc3[nH]c(=O)[nH]c3cc2c1)N1CCN(Cc2ccsc2)CC1 [Cmpd 7t, N-3-(2,3-dihydro-2-oxo-1H-imidazo[4,5-b]quinolin-7yloxy)propyl]-4-[(3-thienyl)methyl)-1-piperazinecarboxamide dihydrochloride]
[1]; [2]
  IC50: 0.15 µg/mL
Aqueous solubility
  solubility: 3000 µg/mL

## Cl.Cl.O=C(NCCCOc1ccc2nc3[nH]c(=O)[nH]c3cc2c1)N1CCC(N2CCCCC2)CC1 [Cmpd 7u, N-[3-(2,3-dihydro-2-oxo-1H-imidazo[4,5-b]quinolin-7yloxy)propyl]-4-(1-piperidinyl)-1-piperidinecarboxamide dihydrochloride]
[1]; [2]
  IC50: 5.2 µg/mL
Aqueous solubility
  solubility: > 20000 µg/mL

## Cl.Cl.O=C(NCCCOc1ccc2nc3[nH]c(=O)[nH]c3cc2c1)N1CCN(c2ncccn2)CC1 [Cmpd 7v, N-[3-(2,3-dihydro-2-oxo-1H-imidazo[4,5-b]quinolin-7yloxy)propyl]-4-(2-pyrimidinyl)-1-piperazinecarboxamide dihydrochloride]
[1]; [2]
  IC50: 0.17 µg/mL
Aqueous solubility
  solubility: 100 µg/mL

## O=C(NCCCOc1ccc2nc3[nH]c(=O)[nH]c3cc2c1)N1CCN(c2ccccn2)CC1 [Cmpd 7w, N-[3-(2,3-dihydro-2-oxo-1H-imidazo[4,5-b]quinolin-7yloxy)propyl]-4-(2-pyridyl)-1-piperazinecarboxamide dihydrochloride ethanol solvate]
[1]; [2]
  IC50: 0.38 µg/mL
Aqueous solubility
  solubility: 500 µg/mL

## O=C(CCCOc1ccc2nc3[nH]c(=O)[nH]c3cc2c1)N1CCN(CC2CCCCC2)CC1 [formula (3) compound, reference compound]
[1]; Homo sapiens, incubation with PRP for about 15 minutes prior to adding ADP, read-out: observed IC50, ADP-induced aggregation
  IC50: 0.041 µg/mL
[1]; Homo sapiens, read-out: concentration providing 50% inhibition of ADP-induced aggregation, incubation with PRP for about 3 minutes prior to addition of the agonist
  IC50: 0.182 µg/mL

From patent US5196428A, “Imidazo[4,5-b]qinolinyl oxy alkyl ureas” (Bristol-Myers Squibb Company, priority 1992, dated 1993)
